In the assay the target is T1, human IBAT (Homo sapiens, UniProt Q12908).
T1 construct: expressed in transfected cells; host or cells: Baby hamster kidney (BHK) cells, H14 cells
T1 sequence (Q12908 1-348): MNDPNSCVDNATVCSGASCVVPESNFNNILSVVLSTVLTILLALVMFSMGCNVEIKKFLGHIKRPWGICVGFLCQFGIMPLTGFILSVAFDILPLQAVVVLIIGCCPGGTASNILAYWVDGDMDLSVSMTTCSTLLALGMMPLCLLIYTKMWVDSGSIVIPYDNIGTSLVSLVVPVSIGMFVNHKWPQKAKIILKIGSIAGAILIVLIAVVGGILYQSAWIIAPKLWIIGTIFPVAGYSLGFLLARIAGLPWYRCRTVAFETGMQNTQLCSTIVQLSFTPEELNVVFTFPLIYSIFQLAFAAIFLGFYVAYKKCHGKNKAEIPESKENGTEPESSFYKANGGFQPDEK
Briefly: In vitro assay of compounds that inhibit IBAT-mediated uptake of [14C]-taurocholate (TC) in H14 cells. The assay is classed as cell-based. To be noted: Table 8, 1, 4 and 1, 5 benzothiazipines. On the procedure: In Vitro Assay of Compounds that Inhibit IBAT-Mediated Uptake of [^14C]-Taurocholate (TC) in H14Cells
Baby hamster kidney cells (BHK) transfected with the cDNA of human IBAT (H14 cells) are seeded in 96 well Top-Count tissue culture plates at 60,000 cells/well for assays run within 24 hours of seeding, 30,000 cells/well for assays run within 48 hours, and 10,000 cells/well for assays run within 72 hours.
On the day of assay, the cell monolayer is gently washed once with […] (Dulbecco's Modified Eagle's medium with 4.5 g/L glucose plus 0.2% (w/v) fatty acid free bovine serum albumin ((FAF)BSA). To each well […] of a two-fold concentrate of test compound in assay buffer is added along with […] of […] [^14C]-taurocholate in assay buffer (final concentration of […] [^14C]-taurocholate). The cell culture plates are incubated 2 hours at 37° C. prior to gently washing each well twice with […] 4° C. Dulbecco's phosphate-buffered saline (PBS) containing 0.2% (w/v) (FAF)BSA. The wells are then gently washed once with […] 4° C. PBS without (FAF)BSA. To each […] of liquid, scintillation counting fluid is added. The plates are heat sealed and shaken for 30 minutes at room temperature prior to measuring the amount of radioactivity in each well on a Packard Top-Count instrument.

In general, IC50 refers to the concentration at which inhibition is half-maximal. A low value points to higher potency. The molecule `CCCCC1(CCCC)CS(=O)(=O)c2ccc(N(C)C)cc2[C@@H](c2ccc(OC)cc2)N1` (racemic) [Compound 2, 3.3-Dibutyl-2.3,4,5-tetrahydro-7-dimethylamino-5-(4′-methoxyphenyl)-1,4-benzothiazepine 1,1-dioxide] displayed an IC50 of 497 nM.

Source of the values: patent US20040077625A1, “Novel 1,4-benzothiazepine and 1,5-benzothiazepine compounds as inhibitors of apical sodium codependent bile acid transport abd taurocholate uptake” (priority 2001, published 2004).
